Read-outs that look alike come from different tables or passages of the source.
How the values were obtained:
LO2 cells = assay: (Photo)cytotoxicity, MTT assay, LO2; type: cell-based, human; details: for PI (phototoxicity index): IC50 dark / IC50 light
Protocol: (§1) Cell lines and culture conditions
(§2) A549, A549cisR, MCF-7 and LO2 cells were obtained from Experimental Animal Center of Sun Yat-sen University (Guangzhou, China). Cells were maintained in DMEM (Dulbecco’s modified […]
(§3) medium, which contained 10% FBS (fetal bovine serum, Gibco BRL), 100 ȝg/mL streptomycin (Gibco BRL), and 100 U/mL penicillin (Gibco BRL). The cells were cultured in a humidified […]
(§4) In each experiment, cells treated with vehicle control (1% DMSO) were kept as the reference group.
(§5) The cytotoxicity in the dark and phototoxicity of the tested compounds toward A549, A549cisR, MCF-7 and LO2 cell lines was determined by MTT assay.
(§6) For cytotoxicity in the dark, cells cultured in 96-well plates were grown to confluence. The compounds were dissolved in DMSO (1%, v/v), and diluted with fresh media immediately. the cells were incubated with a series of concentrations of the tested compounds for 44 h at 37 °C. 20 ȝL of MTT solution was then added to each well, and the plates were incubated for an additional 4 h. The media was carefully removed, and DMSO was added (150 µL per well) and incubated for 10 min with shaking. The absorbance at 595 nm was measured using a microplate reader (Infinite M200 Pro, Tecan, Männedorf, Switzerland).
(§7) For phototoxicity, the cells were incubated with the tested compounds for 12 h. The media containing the iridium complexes was removed and fresh media without the complexes was added.
(§8) After another 32 h of incubation, MTT was added. The cytotoxicity was determined as described

A549cisR cells = assay: (Photo)cytotoxicity, MTT assay, A549cisR; type: cell-based, human; details: for PI (phototoxicity index): IC50 dark / IC50 light
Protocol: as §1, §2, §3, §4, §5, §6, §7, §8

MCF-7 cells = assay: (Photo)cytotoxicity, MTT assay, MCF-7; type: cell-based, human; details: for PI (phototoxicity index): IC50 dark / IC50 light
Protocol: as §1, §2, §3, §4, §5, §6, §7, §8

A549 cells [1] = assay: (Photo)cytotoxicity, MTT assay, A549; type: cell-based, human; details: for PI (phototoxicity index) / IC50: A549; for PI (phototoxicity index): IC50 dark / IC50 light
Protocol: as §1, §2, §3, §4, §5, §6, §7, §8

A549 cells [2] = details: A549, 0.5 μM with light (36 J cm–2)
Protocol: Annexin V/propidium iodide double staining assay
The assay was performed according to the manufacturer's (Sigma Aldrich, USA) protocol. A549 cells
a 425 nm LED light array (40 mW cmí2) at different light doses (12, 24 or 36 J cmí2).
necessary, the cells were incubated with NaN3 (10 mM) for 1 h before PDT treatment. For flow
cytometry analysis, the cells were harvested and re-suspended in 500 ȝL annexin-binding buffer (10
mM HEPES, 140 mM NaCl, 2.5 mM CaCl2, pH 7.4). The cell suspension was stained with 5 ȝL
annexin V and 10 ȝL propidium iodide at room temperature for 15 min in the dark, and then
analyzed immediately by flow cytometry (FACSCaliburTM, Becton Dickinson, NJ, USA). The
resulting dot blots were analyzed by FlowJo Software (Tree Star, OR, USA). For confocal
microscopy analysis, the cells were washed twice with PBS, and then incubated with 500 ȝL annexin-binding buffer supplemented with 5 ȝL annexin V and 10 ȝL propidium iodide at room
temperature for 15 min in the dark. The samples were visualized immediately by confocal
microscopy (LSM 710, Carl Zeiss, Göttingen, Germany). Emission was collected at 530 ± 20 nm
(annexin V) and 620 ± 20 nm (propidium iodide) upon excitation at 488 nm.

A549 and LO2 cells = details: 0.5 μM, light 36 J cm–2, annexin V/propidium iodide staining
Protocol: (§9) concentrations for 12 h and then irradiated with a 425 nm LED light array (40 mW cmí2) for 15 min

A549 cells [3] = details: A549, 0.5 μM with light (36 J cm–2), vs control cells treated with light alone
Protocol: (§10) concentrations for 24 h with or without light irradiation. After A549 cells were incubated with 2 for 12 h, the cells were irradiated with a 425 nm LED light array (40 mW cmí2) for 15 min (36 J cmí2).
When necessary, the cells were incubated with NaN3 (10 mM) for 1 h before PDT treatment. The cells were washed twice with PBS gently and fixed with 4% paraformalclehyde for 30 min at room temprature. The cells were washed with PBS twice, and then Hoechst 33342 (5 µg/mL) in PBS was added to the media by gently shaking in the dark for 10 min. The cells were washed with PBS twice and visualized by confocal microscopy (LSM 710, Carl Zeiss, Göttingen, Germany). Emission was collected at 460 ± 20 nm upon excitation at 405 nm. […]
Caspase-3/7 activity was measured using Caspase-Glo® Assay kit (Promega, Madison, WI, USA) according to the manufacturer's instructions. […]
incubated with 2 or cisplatin for 12 h, the cells were irradiated with a 425 nm LED light array (40 mW cmí2) for 15 min (36 J cmí2). […] The mixture was incubated at room temperature for 1 h and then the luminescence was measured using a microplate reader (Infinite M200 Pro, Tecan, Männedorf, […]
The cells were further treated with 10 ȝM DCF-DA for 20 min at 37 °C in the dark and then then irradiated with a 425 nm LED light array (40 mW cmí2) for 15 min (36 J cmí2). […] The results were analyzed by FlowJo Software (Tree Star, OR, USA). […]

[4] = system: caspase-3/7 activity in A549 cells; assay: Caspase-3/7 activity assay (Caspase-Glo); type: cell-based, human; details: for increase in caspase-3/7 activity: vs control cells in the dark
Protocol: as §10
When necessary, the cells were incubated with NaN3 (10 mM) for 1 h before PDT treatment. The cells were washed twice with PBS gently and fixed with 4% paraformalclehyde for 30 min at room temprature. The cells were washed with PBS twice, and then Hoechst 33342 (5 µg/mL) in PBS was added to the media by gently shaking in the dark for 10 min. The cells were washed with PBS twice and visualized by confocal microscopy (LSM 710, Carl Zeiss, Göttingen, Germany). Emission was collected at 460 ± 20 nm upon excitation at 405 nm.
Caspase-3/7 activity assay
Caspase-3/7 activity was measured using Caspase-Glo® Assay kit (Promega, Madison, WI, USA) according to the manufacturer's instructions. Briefly, cells were cultured in 96-well plates and treated […]
incubated with 2 or cisplatin for 12 h, the cells were irradiated with a 425 nm LED light array (40 mW cmí2) for 15 min (36 J cmí2). 100 µL of Caspase-Glo® 3/7 reagent was added to each well containing 100 µL culture media. The mixture was incubated at room temperature for 1 h and then the luminescence was measured using a microplate reader (Infinite M200 Pro, Tecan, Männedorf, […]
The cells were further treated with 10 ȝM DCF-DA for 20 min at 37 °C in the dark and then then irradiated with a 425 nm LED light array (40 mW cmí2) for 15 min (36 J cmí2). After the treatment, the cells were harvested and washed twice with serum-free RPMI 1640, the fluorescence intensity of DCF in A549 cells was measured by flow cytometry (FACSCaliburTM, Becton Dickinson, Franklin Lakes, NJ, USA). The results were analyzed by FlowJo Software (Tree Star, OR, USA). […]
as §9

[5] = dark, incubated 48 h, read-out: IC50 Dark
[6] = incubated 12 h then 425 nm LED 15 min (36 J cm–2), read-out: IC50 (light) (converted)
[7] = Homo sapiens, L02, dark, incubated 48 h, read-out: IC50 Dark
[8] = Homo sapiens, L02, incubated 12 h then 425 nm LED 15 min (36 J cm–2), read-out: IC50 (light) (converted)
[9] = Homo sapiens, dark, incubated 48 h, read-out: IC50 Dark
[10] = Homo sapiens, incubated 12 h then 425 nm LED 15 min (36 J cm–2), read-out: IC50 (light) (converted)

Compound: Ir2(dfppy)4Cl2 [reference compound]
- PI (phototoxicity index) (LO2 cells): 1.4
- IC50 (LO2 cells; [5]): 29.6 ± 3.1 µM
- IC50 (LO2 cells; [6]): 21.5 µM
- PI (phototoxicity index) (A549cisR cells): 1.0
- IC50 (A549cisR cells; [5]): 4.3 ± 0.5 µM
- IC50 (A549cisR cells; [6]): 4.2 µM
- PI (phototoxicity index) (MCF-7 cells): 5.2
- PI (phototoxicity index) (A549 cells [1]): 1.2
- IC50 (A549 cells [1]; [5]): 11.5 ± 1.5 µM
- IC50 (A549 cells [1]; [6]): 9.3 µM

Compound: [Ir(N^C)2(N^N)](PF6) in which N^C = 2-phenylpyridine and N^N = 1-(2-benzimidazolyl)-β-carboline [Complex 2]
- IC50 (LO2 cells; [5]): > 100 µM
- IC50 (LO2 cells; [6]): 4.4 µM
- PI (phototoxicity index) (A549cisR cells): >625
- IC50 (A549cisR cells; [5]): > 100 µM
- IC50 (A549cisR cells; [6]): 0.16 µM
- PI (phototoxicity index) (MCF-7 cells): > 769
- IC50 (MCF-7 cells; incubated 12 h then 425 nm LED 15 min (36 J cm-2), read-out: IC50 Light): 0.13 ± 0.02 µM
- percentage of apoptotic cells (A549 cells [2]): 69.7%
- selectivity of PDT in A549/LO2 co-culture (A549 and LO2 cells): high selectivity towards cancer over normal cells
- increase in the mean fluorescence intensity of DCF (A549 cells [3]): ca. 17 fold
- increase in caspase-3/7 activity ([4]; A549, 0.5 μM and light (36 J cm–2)): approximately 5.7 fold
- increase in caspase-3/7 activity ([4]; A549, compound alone (dark)): negligible increase
- PI (phototoxicity index) (A549 cells [1]): >833
- IC50 (A549 cells [1]; [5]): ≥ 100 µM
- IC50 (A549 cells [1]; [6]): 0.12 µM
- fold higher phototoxicity against A549 cells than against LO2 cells (A549 cells [1]; light IC50 A549 vs LO2): over 36 fold

Compound: Ir2(ppy)4Cl2 [reference compound]
- PI (phototoxicity index) (LO2 cells): 1.3
- IC50 (LO2 cells; [5]): 28.5 ± 2.4 µM
- IC50 (LO2 cells; [6]): 21.3 µM
- PI (phototoxicity index) (A549cisR cells): 2.9
- IC50 (A549cisR cells; [5]): 20.2 ± 2.3 µM
- IC50 (A549cisR cells; [6]): 7 µM
- PI (phototoxicity index) (MCF-7 cells): 4.3
- PI (phototoxicity index) (A549 cells [1]): 1.7
- IC50 (A549 cells [1]; [5]): 19.6 ± 2.6 µM
- IC50 (A549 cells [1]; [6]): 11.4 µM

Compound: c1ccc2c(c1)[nH]c1c(-c3ncc[nH]3)nccc12 [Complex L1, 1-(2-imidazolyl)-β-carboline, reference compound]
- IC50 (LO2 cells; [7]): > 100 µM
- IC50 (LO2 cells; [8]): 47.4 µM
- PI (phototoxicity index) (LO2 cells): >2.1
- IC50 (A549cisR cells; [9]): 42.6 ± 3.8 µM
- IC50 (A549cisR cells; [10]): 19.7 µM
- PI (phototoxicity index) (A549cisR cells): 2.2
- PI (phototoxicity index) (MCF-7 cells): 16.3
- PI (phototoxicity index) (A549 cells [1]): >5.7
- IC50 (A549 cells [1]; [9]): > 100 µM
- IC50 (A549 cells [1]; [10]): 17.6 µM

Compound: N.N.[Cl][Pt][Cl] [Cisplatin, reference compound]
- PI (phototoxicity index) (LO2 cells): 1.0
- IC50 (LO2 cells; [5]): 31.2 ± 2.7 µM
- IC50 (LO2 cells; [6]): 30.5 µM
- PI (phototoxicity index) (A549cisR cells): 1.0
- IC50 (A549cisR cells; [5]): 85.5 ± 5.3 µM
- IC50 (A549cisR cells; [6]): 86.1 µM
- PI (phototoxicity index) (MCF-7 cells): 1.1
- effect of light irradiation on caspase-3/7 activation ([4]; A549, 425 nm light (36 J cm–2)): no effect
- PI (phototoxicity index) (A549 cells [1]): 1.0
- IC50 (A549 cells [1]; [5]): 23.3 ± 2.6 µM
- IC50 (A549 cells [1]; [6]): 22.6 µM

Compound: c1ccc2[nH]c(-c3nccc4c3[nH]c3ccccc34)nc2c1 [Complex L2, 1-(2-benzimidazolyl)-β-carboline]
- IC50 (LO2 cells; [7]): > 100 µM
- IC50 (LO2 cells; [8]): > 100 µM
- IC50 (A549cisR cells; [9]): > 100 µM
- IC50 (A549cisR cells; [10]): > 100 µM
- IC50 (A549 cells [1]; [9]): > 100 µM
- IC50 (A549 cells [1]; [10]): > 100 µM

Source: article PMC5947539, “Cyclometalated iridium(III) complexes as lysosome-targeted photodynamic anticancer and real-time tracking agents” (Chemical Science, 2015)
